This is an account of results in ChEMBL document CHEMBL1201862, “PubChem BioAssay data set” (2004).

SMILES strings stand for the structures.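 Assay format: 96-well plates, 48-hour exposure. GI50 marks 50% less growth.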 Active and inactive are the calls of the source. Rule as the data show it: active = GI50 up to about 1.1 µM and inactive = higher.

Some test systems named below: A498; 786-0; SF-539; SN12C; MDA-N; TK-10; OVCAR-8; UO-31; UACC-62; MDA-MB-435; IGROV-1; HCT-116; SK-MEL-2; MCF7; SW-620; SNB-19; Hs-578T; EKVX; OVCAR-4; NCI-H522.
Common to all, as to test: NCI-60 cell line screen, 48 h

Turning to `S=C(N/N=C/c1ccccn1)N1CCCCC1`, the GI50 in the assay with A498 was < 0.0461 µM (active); in the assay with 786-0 it was < 0.0137 µM (active); in the assay with SF-539 it was 0.135 µM (active); with SN12C it was < 0.0394 µM (active); with MDA-N, 0.271 µM (active); with TK-10 it was 0.0205 µM (active). Further, the GI50 in the assay on OVCAR-8 was < 0.01 µM (active); with UO-31, 0.0131 µM (active); in the assay with UACC-62, 0.0497 µM (active); in the assay with MDA-MB-435 it was 0.163 µM (active); in the assay on IGROV-1, < 0.01 µM (active); in the assay on HCT-116, < 0.01 µM (active). Besides, the GI50 in the assay with SK-MEL-2 is 0.0695 µM (active); in the assay on MCF7, < 0.01 µM (active); in the assay with SW-620, < 0.0122 µM (active); with SNB-19 it was 1.23 µM (inactive); in the assay with Hs-578T it was 0.902 µM (active); with EKVX, 0.07 µM (active).
As for `CCOC(=O)c1cc2ncccc2c2ccccc12`, the GI50 in the assay on 786-0, with SN12C, in the assay with OVCAR-4, with MDA-N, with TK-10 and with OVCAR-8 was > 100 µM (inactive) in each case. Further, the GI50 in the assay on UO-31, with UACC-62, in the assay with MDA-MB-435, in the assay with NCI-H522, in the assay on IGROV-1 and in the assay on HCT-116 was > 100 µM (inactive) each time. Further, the GI50 with SK-MEL-2, in the assay on MCF7, with SNB-19, in the assay on Hs-578T and in the assay on EKVX was > 100 µM (inactive) each time.
Consider `CCOc1ccc(N/C(=C(/C(Cl)=C(/Cl)NCCN)[N+](=O)[O-])n2nnc3ccccc32)cc1`, for which the GI50 in the assay on A498 was 56.8 µM (inactive); in the assay with 786-0, 31.8 µM (inactive); with SF-539 it was 18.2 µM (inactive); with SN12C, 35.6 µM (inactive); with OVCAR-4, 30.6 µM (inactive); with MDA-N it was 58.1 µM (inactive). The GI50 is 15 µM (inactive) in the assay on OVCAR-8; 37.9 µM (inactive) in the assay on UO-31; 43.5 µM (inactive) in the assay with UACC-62; 44.3 µM (inactive) in the assay with MDA-MB-435; 24.3 µM (inactive) in the assay on HCT-116; > 100 µM (inactive) in the assay on SK-MEL-2. Further, the GI50 in the assay on MCF7 is 35 µM (inactive); with SW-620, 6.79 µM (inactive); with SNB-19 it was > 100 µM (inactive); in the assay on Hs-578T it was 27.5 µM (inactive); in the assay on EKVX it was 50.2 µM (inactive).
For `COc1ccc(C2SC(=N)Nc3c2c(C)nn3C(=O)c2ccncc2)cc1OC` (stereo not drawn), the GI50 in the assay with 786-0, in the assay with SF-539, with SN12C, in the assay on OVCAR-4, in the assay on MDA-N and in the assay with TK-10 was > 10 µM (inactive) each time. Also, the GI50 in the assay on OVCAR-8, in the assay on UACC-62, in the assay on MDA-MB-435, with NCI-H522, with IGROV-1 and in the assay with HCT-116 was > 10 µM (inactive) throughout. For the same compound, the GI50 with SK-MEL-2, in the assay with MCF7, in the assay with SW-620, in the assay on SNB-19, with Hs-578T and in the assay with EKVX was > 10 µM (inactive) throughout.
For `Cc1nc(C(N)=S)sc1/C(CC(=O)C(=O)Nc1cccc2ccc(O)cc12)=N\NC(=O)c1ccncc1`, the GI50 with 786-0 is 40.3 µM (inactive); in the assay on SF-539, 94.2 µM (inactive); with SN12C it was 35.1 µM (inactive); in the assay on OVCAR-4 it was 49.9 µM (inactive); with MDA-N, 63.5 µM (inactive); in the assay with TK-10, 77.8 µM (inactive). Besides, the GI50 in the assay on OVCAR-8 is 49.1 µM (inactive); with UO-31 it was 98.2 µM (inactive); with UACC-62, 29.5 µM (inactive); in the assay on MDA-MB-435, > 100 µM (inactive); in the assay with NCI-H522 it was 34.5 µM (inactive); in the assay with IGROV-1, 53.7 µM (inactive). The GI50 in the assay with HCT-116 was 55.8 µM (inactive); in the assay on SK-MEL-2, > 100 µM (inactive); with MCF7, 39.7 µM (inactive); in the assay on SW-620 it was > 100 µM (inactive); in the assay on SNB-19, 73.5 µM (inactive); with Hs-578T it was > 100 µM (inactive). Also, in the assay on EKVX, the GI50 was > 100 µM (inactive).
Consider `Cc1cc(S(=O)(=O)Nc2nc3ccccc3n2-c2ccccc2)c(S)cc1Cl`, for which the GI50 is > 100 µM (inactive) in the assay on 786-0; > 100 µM (inactive) in the assay with SF-539; > 100 µM (inactive) with OVCAR-4; 87.5 µM (inactive) in the assay with MDA-N; > 100 µM (inactive) in the assay with OVCAR-8; > 100 µM (inactive) with UO-31. Also, the GI50 with UACC-62, in the assay on MDA-MB-435, in the assay on NCI-H522, in the assay with IGROV-1, in the assay on HCT-116 and with SK-MEL-2 was > 100 µM (inactive) each time. For the same compound, the GI50 in the assay on MCF7 was > 100 µM (inactive); in the assay on SW-620 it was > 100 µM (inactive); with SNB-19, 82.2 µM (inactive); with Hs-578T it was > 100 µM (inactive); in the assay with EKVX, > 100 µM (inactive).
For the compound `CC(=O)O[C@H]1CC[C@H]2[C@@H]3CCC4=C(C(=O)C=CC4(C)OC(C)=O)[C@H]3CC[C@]12C` (stereo partly drawn), the GI50 in the assay with A498 is > 100 µM (inactive); in the assay on 786-0 it was 86.7 µM (inactive); in the assay on SF-539, 43.6 µM (inactive); in the assay on SN12C, 41.5 µM (inactive); in the assay on OVCAR-4, > 100 µM (inactive); with MDA-N, 34.6 µM (inactive). The GI50 was > 100 µM (inactive) in the assay on TK-10; 39.5 µM (inactive) in the assay on OVCAR-8; 55.3 µM (inactive) in the assay on UO-31; 23.1 µM (inactive) in the assay on UACC-62; 49.4 µM (inactive) in the assay on MDA-MB-435; 45.8 µM (inactive) in the assay on NCI-H522. The GI50 in the assay with IGROV-1 was > 100 µM (inactive); in the assay with HCT-116, 33.2 µM (inactive); with MCF7 it was 26.4 µM (inactive); in the assay on SW-620, 35.8 µM (inactive); with SNB-19, > 100 µM (inactive); in the assay on Hs-578T, > 100 µM (inactive). The GI50 in the assay with EKVX was > 100 µM (inactive).
`O=C1C=C2CO[C@H]3OC[C@H](O)[C@@H]1[C@@H]23`: the GI50 was > 100 µM (inactive) in the assay with A498; 35 µM (inactive) with 786-0; 22.9 µM (inactive) in the assay with SN12C; 35.2 µM (inactive) in the assay on MDA-N; 59.3 µM (inactive) with TK-10; 32 µM (inactive) in the assay with OVCAR-8. For the same compound, the GI50 with UO-31 was 37.3 µM (inactive); with UACC-62 it was 67.5 µM (inactive); in the assay on MDA-MB-435, 30.9 µM (inactive); in the assay with NCI-H522, 16.5 µM (inactive); in the assay with IGROV-1, > 100 µM (inactive); in the assay on HCT-116, 88.1 µM (inactive). The GI50 with SK-MEL-2 was 16.3 µM (inactive); in the assay on MCF7 it was 43.2 µM (inactive); in the assay on SW-620, 30.1 µM (inactive); in the assay on SNB-19, > 100 µM (inactive); with Hs-578T, > 100 µM (inactive); in the assay with EKVX it was > 100 µM (inactive).
`Cc1cccc(C)c1NC(=O)C(=O)C(c1ccccc1Cl)S(=O)(=O)Cc1ccccc1Cl` (stereo not drawn): the GI50 is 27.7 µM (inactive) in the assay with 786-0; 16 µM (inactive) in the assay on SF-539; > 85.5 µM (inactive) with SN12C; > 100 µM (inactive) in the assay with OVCAR-4; > 100 µM (inactive) with MDA-N; > 61.2 µM (inactive) in the assay on TK-10. Also, the GI50 in the assay with OVCAR-8 is > 37.8 µM (inactive); in the assay on UO-31, > 100 µM (inactive); with UACC-62, 31.7 µM (inactive); in the assay on MDA-MB-435, > 100 µM (inactive); in the assay on NCI-H522, > 100 µM (inactive); with IGROV-1 it was > 62.4 µM (inactive). The GI50 in the assay on HCT-116 was > 82.2 µM (inactive); in the assay with SK-MEL-2 it was > 83.8 µM (inactive); in the assay on MCF7 it was > 100 µM (inactive); in the assay with SW-620 it was > 100 µM (inactive); in the assay on SNB-19, 41.5 µM (inactive); in the assay on Hs-578T it was 41.4 µM (inactive). Moreover, in the assay on EKVX, the GI50 is > 100 µM (inactive).
Regarding `COc1ccccc1/N=N/C(=N\NC(=O)c1ccc(C)cc1)c1ccc(N(CCC#N)CCC#N)cc1C`, the GI50 was 51.8 µM (inactive) in the assay on A498; 70.3 µM (inactive) in the assay with 786-0; > 100 µM (inactive) in the assay on SF-539; 39.4 µM (inactive) in the assay on SN12C; 43.6 µM (inactive) in the assay with OVCAR-4; 45.6 µM (inactive) in the assay on MDA-N. The GI50 is > 100 µM (inactive) in the assay with TK-10; 42.3 µM (inactive) with OVCAR-8; 61.9 µM (inactive) in the assay with UO-31; 39.5 µM (inactive) with MDA-MB-435; 33.7 µM (inactive) with IGROV-1; 31.6 µM (inactive) with HCT-116. The GI50 with SK-MEL-2 was 36.4 µM (inactive); with MCF7, 34.6 µM (inactive); in the assay on SW-620, 47.5 µM (inactive); in the assay on SNB-19, 97.3 µM (inactive); in the assay with Hs-578T, 39.3 µM (inactive); in the assay on EKVX it was > 100 µM (inactive).
Turning to `C=CCN1C(=O)N/C(=C\c2ccc(Cl)cc2)C1=O`, the GI50 is 22.6 µM (inactive) in the assay on A498; > 100 µM (inactive) with 786-0; > 100 µM (inactive) in the assay with SF-539; > 100 µM (inactive) in the assay with SN12C; > 100 µM (inactive) in the assay with OVCAR-4; > 100 µM (inactive) with MDA-N. The GI50 in the assay with TK-10 is > 100 µM (inactive); in the assay on OVCAR-8, > 100 µM (inactive); in the assay on UACC-62, 97.7 µM (inactive); with MDA-MB-435 it was > 100 µM (inactive); in the assay on NCI-H522, 87.7 µM (inactive); in the assay with IGROV-1, > 100 µM (inactive). The GI50 with HCT-116 was > 100 µM (inactive); in the assay on MCF7 it was > 100 µM (inactive); in the assay with SW-620, > 100 µM (inactive); with SNB-19, > 100 µM (inactive); in the assay with Hs-578T it was > 100 µM (inactive); with EKVX it was 93.8 µM (inactive).
